Source: article PMC8512555, “Patient-Derived Tumor Chemosensitization of GKB202, an Antrodia Cinnamomea Mycelium-Derived Bioactive Compound” (Molecules, 2021)

Tests used:
Assay type in all cases: cell-based, human
[1] = tested on: colorectal cancer (CRC) patient-derived circulating tumor cells; assay: Ex vivo viability assay (CellTiter-Glo) on patient-derived CTC spheroids, colorectal cancer; settings: 6 days; for relative survival rate: vs untreated control cells; for anti-CTC effect compared with the 5-FU group: 4 and 20 µg/mL
Description: (§1) Patients who were diagnosed with oral cancer (OC), hepatocellular carcinoma (HCC) and colorectal cancer (CRC) with stage III or IV were recruited and provided written informed consent to participate in this study. For patients enrolled, clinical profiles including initial cancer staging, medication information, and treatment responses were recorded. Peripheral blood (7.5 mL) was collected in vacated ethylenediaminetetraacetic acid (EDTA) tubes and peripheral blood mononuclear cells (PBMCs) were isolated by gradient gravity centrifugation using Ficoll-Paque. Blood was added to a LeucoSep tube filling with 15 mL of Ficoll-Paque Plus in the bottom of the frit and centrifuged to obtain the PBMC fraction. Then PBMC was resuspended in phosphate-buffered saline (PBS) containing 1% BSA, 2 mM EDTA where CTC was enriched by RosetteSep® CTC Enrichment Cocktail kit. Briefly, the PBMC pellet is incubated with antibodies at room temperature, followed by the addition of PBS containing 2% FBS to the diluted sample. The diluted sample was added on the top of Ficoll-Paque for another centrifugation, then enriched cells were obtained and suspended in DMEM/F12 medium containing EGF, bFGF, and B27 supplement. Cells were seeded onto a substrate of binary colloidal crystals (BCCs). The structure of BCCs has been reported for its ability to enhance the expansion of rare cancer cells. The medium was replaced in each well every four days. Tumor-derived CTC spheroids were checked by optical microscopy.
(§2) To test the anti-tumor activity of natural compounds, CTC spheroids were allowed to grow for four weeks then spheroids were collected to seed into other BCC plates and incubated for 16 h. Two chemotherapy drugs used as the positive control including 5-FU (30 µM), Cisplatin (14.4 µM), GKA201, GKB202 and GKC203 (4 µg/mL and 20 µg/mL) were added to cells and incubated for six days. Cell viability was determined by a CellTiter-Glo® Luminescent Cell Viability Assay (Promega Corporation, Madison, WI, US) where cells were incubated with a Cell-Titer Glo reagent for 10 min and the luminescence was read on a GloMax® Navigator Microplate Luminometer (Promega Corporation, Madison, WI, US). The relative cell viability was calculated as the percentage of cells treated with drugs or natural compounds compared with untreated control cells.

[2] = tested on: oral cancer (OC) patient-derived circulating tumor cells; assay: Ex vivo viability assay (CellTiter-Glo) on patient-derived CTC spheroids, oral cancer; settings: for relative survival rate / anti-CTC effect compared with the 5-FU group: 6 days; for relative survival rate: vs untreated control cells; for drug sensitivity of OC patient organoids: Cisplatin and Carboplatin at the same concentration, Figure S3; for anti-CTC effect compared with the 5-FU group: 4 and 20 µg/mL
Description: as §1, §2

[3] = tested on: hepatocellular carcinoma (HCC) patient-derived circulating tumor cells; assay: Ex vivo viability assay (CellTiter-Glo) on patient-derived CTC spheroids, hepatocellular carcinoma; settings: 6 days; for relative survival rate: vs untreated control cells; for anti-CTC effect compared with the 5-FU group: 4 and 20 µg/mL
Description: as §1, §2

Structure (SMILES): O=c1[nH]cc(F)c(=O)[nH]1 [5-FU]
- relative survival rate ([1]; 5-FU 30 µM): 49 ± 13%
- relative survival rate ([2]; 5-FU 30 µM): 51 ± 13%
- relative survival rate ([3]; 5-FU 30 µM): 43 ± 2%

Structure (SMILES): N.N.O=C([O-])C1(C(=O)[O-])CCC1.[Pt+2] [Carboplatin]
- drug sensitivity of OC patient organoids [2]: resistant

Structure (SMILES): N.N.[Cl][Pt][Cl] [Cisplatin]
- relative survival rate ([1]; Cisplatin 14.4 µM): 49 ± 10%
- relative survival rate ([2]; Cisplatin 14.4 µM): 21 ± 0.3%
- drug sensitivity of OC patient organoids [2]: sensitive
- relative survival rate ([3]; Cisplatin 14.4 µM): 28 ± 5.8%

Structure (SMILES): CC(C)=CCOc1ccc(C2=C(CC(C)C)C(=O)OC2=O)cc1 [GKA201]
- anti-CTC effect compared with the 5-FU group [1]: no significance
- anti-CTC effect compared with the 5-FU group [2]: no significance
- anti-CTC effect compared with the 5-FU group [3]: no significance

Structure (SMILES): CC(C)=CCOc1ccc(C2=C(CC(C)C)C(=O)N(O)C2=O)cc1 [GKC203]
- anti-CTC effect compared with the 5-FU group [1]: no significance
- anti-CTC effect compared with the 5-FU group [2]: no significance
- anti-CTC effect compared with the 5-FU group [3]: no significance
